Structures can show the parent of a compound that is named as a salt.
Legend:
[1] = test system: extrinsic coagulation time (PT); experiment: Ex vivo measurement of coagulation time in cynomolgus monkeys (oral administration), extrinsic coagulation time (PT); settings: for Test on Measurement of Coagulation Time in Cynomolgus Monkeys (PT): relative ratio of coagulation time to control, blood collection point with the most potent extension
Description: 4) Test on Ex Vivo Measurement of Coagulation Time in Cynomolgus Monkeys (Oral Administration)
A drug (5 mg/ml or 0.5 mg/ml) which was dissolved (suspended) in 0.5% methylcellulose was compulsorily administered per os at a dose of 2 ml/kg (10 mg/kg or 1 mg/kg) via an oral gavage after blood collection before the administration of the drug to a male cynomolgus monkeys (body weight around 4 kg) fasted for 12 hours or longer and, after 1, 2, 4, 6 and 8 hour(s), 2 ml of blood was collected from femoral vein using 1/10 volume of 3.8% sodium citrate and blood plasma was separated by means of centrifugal treatment of 3,000 rpm for 10 minutes. Using the resulting blood plasma, extrinsic coagulation time (PT) and intrinsic coagulation time (APTT) were measured in accordance with the following methods a) and b). The experiment was carried out under non-anesthetization.
a) Extrinsic Coagulation Time (PT)
Ortho Brain Thromboplastin (54 mg/vial; a freeze-dried preparation; Ortho-Clinical Diagnostics) was dissolved in 2.5 ml of Milli-Q water and preliminarily warmed at 37° C. The above-separated blood plasma (50 μl) was warmed at 37° C. for 1 minute, 50 μl of the above-mentioned thromboplastin solution was added and the coagulation time was measured. KC10 of Amelung was used for the measurement of the coagulation time.

[2] = target: T1, human factor Xa (Homo sapiens, UniProt P00742); experiment: In vitro test on measurement of coagulation time by human activated blood coagulation factor X (human plasma); format: biochemical; settings: for Test on Measurement of Coagulation Time by Human Activated Blood Coagulation Factor X (CT2): CT2 = concentration by which the coagulation time is prolonged 2-fold, human blood plasma; for anti-blood coagulation action (extension of coagulation time), in words: in vitro, human plasma
T1 construct: purchased Enzyme Research Labs
T1 sequence (P00742 235-488 limits assumed): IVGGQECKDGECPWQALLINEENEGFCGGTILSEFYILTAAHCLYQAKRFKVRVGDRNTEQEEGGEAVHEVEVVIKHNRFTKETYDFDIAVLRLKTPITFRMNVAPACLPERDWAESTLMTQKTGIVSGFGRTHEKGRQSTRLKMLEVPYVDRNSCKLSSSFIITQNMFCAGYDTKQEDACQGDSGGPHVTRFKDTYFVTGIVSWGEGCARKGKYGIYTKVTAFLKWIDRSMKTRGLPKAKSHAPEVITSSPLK
T1 sequence (P00742 41-179 partner limits assumed): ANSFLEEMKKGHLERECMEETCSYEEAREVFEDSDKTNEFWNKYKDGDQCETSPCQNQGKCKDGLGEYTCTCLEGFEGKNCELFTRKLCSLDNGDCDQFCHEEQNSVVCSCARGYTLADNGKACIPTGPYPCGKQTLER
Description: 1) An In Vitro Test on Measurement of Coagulation Time by Human Activated Blood Coagulation Factor X
To 90 μl of human blood plasma were added 10 μl of a drug or a physiological saline and 50 μl of human factor Xa (Enzyme Research Labs), incubation was carried out at 30° C. for 3 minutes, 100 μl of 20 mM CaCl2 previously warmed at 37° C. were added and the time until coagulation was measured by a coagulo-meter (KC10 of Amelung). With regard to the human blood plasma, each 45 ml of blood were collected from vein of elbow of six healthy persons using a syringe in which 5 ml of 3.8% sodium citrate were contained and centrifuged at 4° C. for 15 minutes at 3,000 rpm and the separate blood plasma was pooled and frozen, then thawed before use. With regard to the human factor Xa, the concentration by which the coagulation time when a physiological saline solution (control) was added was about 30 to 40 seconds was selected. A CT2 value (concentration by which the coagulation time is prolonged to an extent of 2-fold) was determined by plotting the drug concentrations and relative value (fold) of the coagulation time to the control, followed by subjecting to linear regression.

Row | Test on Measurement of Coagulation Time by Human Activated Blood Coagulation Factor X (CT2) [2] | Compound | Test on Measurement of Coagulation Time in Cynomolgus Monkeys (PT) ([1]; 10 mg/kg per os) | anti-blood coagulation action (extension of coagulation time), in words [2] | extending action for the coagulation time compared with control (Example 44 of WO 00/39118) ([1]; same dose as control (10 mg/kg), oral, cynomolgus monkeys) | Test on Measurement of Coagulation Time in Cynomolgus Monkeys (PT) ([1]; 1 mg/kg per os)
1 | – | CC(C)N1CCC(C(=O)Nc2ccc(Cl)cc2C(=O)Nc2ccc(Cl)cn2)CC1 [Control Compound, reference compound] | 2.00 | – | – | –
2 | 0.295 µM | CC(C)N1CCC(C(=O)Nc2c(O[C@@H]3O[C@H](CO)[C@H](O)[C@H](O)[C@H]3O)cc(Br)cc2C(=O)Nc2ccc(Cl)cn2)CC1 [Example 1, trifluoroacetate] | 7.69 | extend the coagulation time at low concentration | longer extending action for the coagulation time | –
3 | – | CC(=O)N[C@H]1[C@H](Oc2cc(Br)cc(C(=O)Nc3ccc(Cl)cn3)c2NC(=O)C2CCN(C(C)C)CC2)O[C@H](CO)[C@@H](O)[C@@H]1O [Example 3, 2′-(2-acetamido-2-deoxy-β-D-glucopyranosyloxy)-4′-bromo-6′-[(5-chloro-2-pyridyl)-carbamoyl]-1-isopropylpiperidine-4-carboxanilide trifluoroacetate] | 5.60 | – | – | –
4 | 0.137 µM | COC[C@H]1O[C@@H](Oc2cc(Br)cc(C(=O)Nc3ccc(Cl)cn3)c2NC(=O)C2CCN(C(C)C)CC2)[C@H](O)[C@@H](O)[C@@H]1O [Example 8] | – | extend the coagulation time at low concentration | – | –
5 | 0.617 µM | CC(C)N1CCC(CNc2c(O)cc(Cl)cc2C(=O)Nc2ccc(Cl)cn2)CC1 [Example 10] | – | extend the coagulation time at low concentration | – | –
6 | 0.153 µM | CC(C)N1CCC(C(=O)Nc2c(O)cc(Cl)cc2C(=O)Nc2ccc(Cl)cn2)CC1 [Example 18, 4′-chloro-2′-[(5-chloro-2-pyridyl)carbamoyl]-6′-hydroxy-1-isopropylpiperidine-4-carboxanilide hydrochloride] | – | extend the coagulation time at low concentration | – | 1.94
7 | – | CC(C)N1CCC(C(=O)Nc2c(O)cc(Br)cc2C(=O)Nc2ccc(Cl)cn2)CC1 [Example 19, 4′-bromo-2′-[(5-chloro-2-pyridyl)carbamoyl]-6′-hydroxy-1-isopropylpiperidine-4-carboxanilide hydrochloride] | – | – | – | 2.26

Source: patent US7786106B2, “Substituted benzene derivatives or salts thereof” (Astellas Pharma Inc., priority 2003, dated 2010)
